≈ marks a conversion by molar mass, not a printed value. Like-named read-outs stand apart in the source and are kept apart here.
Experiments:
[1] = test system: Clostridium difficile ATCC BBA1870; assay: In vitro MIC, agar dilution, Clostridium difficile ATCC BBA1870; type: cell-based; settings: Clostridioides difficile, ATCCBBA1870, 48 h, read-out: MIC values, Clostridium difficile ATCC BBA1870
[2] = test system: Clostridium difficile ATCC 700057; assay: In vitro MIC, agar dilution, Clostridium difficile ATCC 700057; type: cell-based; settings: Clostridioides difficile, read-out: MIC values, Clostridium difficile ATCC 700057
[3] = test system: Clostridium difficile ATCC 630; assay: In vitro MIC, agar dilution, Clostridium difficile ATCC 630; type: cell-based; settings: Clostridioides difficile, read-out: MIC values, Clostridium difficile ATCC 630
ATCC BAA-835 = assay: Selectivity on intestinal probiotics, MIC, agar dilution; type: cell-based; settings: read-out: MIC value, ATCC BAA-835
Description: (§1) ATCC19435, Lactobacillus rhamnosus ATCC7469, Lactobacillus bulgaricus ATCC11842, and the test was performed using Brucella agar medium. The strains frozen at −80° C. were seeded in solid agar medium. The medium was placed in a 37° C. incubator and anaerobically cultivated for 24-48 h. […] For compound I-3 of the present invention, a high concentration (100× test concentration) of working solution was prepared and used on the same day, and 100% DMSO was used as the solvent. As for the preparation of each agar plate for each diluted concentration, 20 μl of high concentration working solution was mixed with 2 ml of melted Brucella agar with supplements (45-55° C.), and then added to a 6-well plate for solidification. 1% DMSO was used as growth control. On the day of the experiment, an appropriate amount of single bacterial colony was selected and suspended in physiological saline. A turbidity meter was used to adjust the turbidity of the bacterial solution to OD600=0.2, and thus the density was about 1×10^8 CFU/ml. 2 μl of such bacterial solution was directly seeded on a solid dilution agar plate of each compound. […] Then, all of the test plates were subjected to anaerobic cultivation at 35±2° C. for 48 h.

[4] = test system: Bifidobacterium bifidum CGMCC NO.1.5091; assay: as above; type: cell-based; settings: read-out: MIC value, Bifidobacterium bifidum CGMCC NO.1.5091
Description: as §1

[5] = test system: Enterococcus faecalis ATCC19433; assay: as above; type: cell-based; settings: read-out: MIC value, Enterococcus faecalis ATCC19433
Description: as §1

[6] = test system: Lactobacillus acidophilus ATCC4356; assay: as above; type: cell-based; settings: read-out: MIC value, Lactobacillus acidophilus ATCC4356
Description: as §1

[7] = test system: Lactobacillus bulgaricus ATCC11842; assay: as above; type: cell-based; settings: read-out: MIC value, Lactobacillus bulgaricus ATCC11842
Description: as §1

[8] = test system: Lactobacillus rhamnosus ATCC7469; assay: as above; type: cell-based; settings: Lacticaseibacillus rhamnosus, read-out: MIC value, Lactobacillus rhamnosus ATCC7469
Description: as §1

[9] = test system: Lactococcus lactis subsp. ATCC19435; assay: as above; type: cell-based; settings: read-out: MIC value, Lactococcus lactis subsp. ATCC19435
Description: as §1

[10] = test system: Clostridium difficile spores (ATCC 630 strain); assay: Treatment of Clostridium difficile infection in golden hamsters; type: in vivo; settings: golden hamsters challenged with C. difficile spores; for time after drug withdrawal at which deaths occurred / began: drugs removed from the 21st day; for survival / mortality after drug withdrawal, observed until the 45th day: twice a day for 20 days (I-3 100 mg/kg, vancomycin 10 mg/kg, fidaxomicin 10 mg/kg, nitazoxanide 100 mg/kg)
Description: 60 of 5-week-old male golden hamsters, weighing 70-90 g, were purchased from Beijing Vital River Laboratory Animal Technology Co., Ltd. After one week of adaptive feeding, golden hamsters were randomly divided into six groups. The model group and four test groups were orally administrated 10 mg/kg clindamycin, while the blank group was given the same volume of normal saline, and this day was recorded as day −1. On day 0, the model group and the test groups were challenged with Clostridium difficile spores (ATCC 630 strain), and each hamster received 5E4 spores. The blank group was not treated. Starting from the first day, four test groups were administered 100 mg/kg of compound I-3 according to the present invention, 10 mg/kg of vancomycin, 10 mg/kg of fidaxomicin, and 100 mg/kg of nitazoxanide twice a day, respectively; the blank group and the model group were given equal amounts of normal saline for a total of 20 days. During this period, the changes in weight, the diarrhea, and the mortality of animals were observed. Starting from the 21st day, the drugs were removed, but the observation was continued until the 45th day.

[11] = ATCC700057, Brucella agar with supplements, anaerobic cultivation 48 h
[12] = ATCC630, Brucella agar with supplements, anaerobic cultivation 48 h
[13] = probiotic strain, Brucella agar, anaerobic cultivation 48 h
[14] = CGMCC1, probiotic strain, Brucella agar, anaerobic cultivation 48 h
[15] = ATCC19433, probiotic strain, Brucella agar, anaerobic cultivation 48 h
[16] = ATCC4356, probiotic strain, Brucella agar, anaerobic cultivation 48 h
[17] = ATCC11842, probiotic strain, Brucella agar, anaerobic cultivation 48 h
[18] = ATCC7469, probiotic strain, Brucella agar, anaerobic cultivation 48 h
[19] = ATCC19435, probiotic strain, Brucella agar, anaerobic cultivation 48 h

Row | SMILES | MIC [1] | MIC [2, 11] | MIC [3, 12] | MIC (ATCC BAA-835; [13]) | MIC [4, 14] | MIC [5, 15] | MIC [6, 16] | MIC [7, 17] | MIC [8, 18] | MIC [9, 19] | survival / mortality after drug withdrawal, observed until the 45th day [10] | other results
1 | CCCC(=O)Oc1ccccc1C(=O)Nc1ncc([N+](=O)[O-])s1 [Compound I-1] | 0.25 µg/mL (≈ 0.746 µM) | 0.25 µg/mL (≈ 0.746 µM) | 0.0625 µg/mL (≈ 0.186 µM) | – | – | – | – | – | – | – | – | –
2 | CCCCCCCC(=O)Oc1ccccc1C(=O)Nc1ncc([N+](=O)[O-])s1 [Compound I-2] | 0.25 µg/mL (≈ 0.639 µM) | 0.25 µg/mL (≈ 0.639 µM) | 0.0625 µg/mL (≈ 0.16 µM) | – | – | – | – | – | – | – | – | –
3 | CCCCCCCCCCCC(=O)Oc1ccccc1C(=O)Nc1ncc([N+](=O)[O-])s1 [Compound I-3] | 0.125 µg/mL (≈ 0.279 µM) | 0.0625 µg/mL (≈ 0.14 µM) | 0.0625 µg/mL (≈ 0.14 µM) | 128 µg/mL (≈ 286 µM) | 128 µg/mL (≈ 286 µM) | 256 µg/mL (≈ 572 µM) | > 256 µg/mL | > 256 µg/mL | > 256 µg/mL | 256 µg/mL (≈ 572 µM) | only one animal died | time after drug withdrawal at which deaths occurred / began [10]: 7 days
4 | CCCCCCCCCCCCCC(=O)Oc1ccccc1C(=O)Nc1ncc([N+](=O)[O-])s1 [Compound I-4] | 0.25 µg/mL (≈ 0.526 µM) | 0.125 µg/mL (≈ 0.263 µM) | 0.0625 µg/mL (≈ 0.131 µM) | – | – | – | – | – | – | – | – | –
5 | CCc1c(Cl)c(O)c(Cl)c(O)c1C(=O)O[C@H]1[C@H](O)[C@H](OC)[C@H](OC/C2=C\C=C\C[C@H](O)/C(C)=C/[C@H](CC)[C@@H](O[C@@H]3OC(C)(C)[C@@H](OC(=O)C(C)C)[C@H](O)[C@@H]3O)/C(C)=C/C(C)=C/C[C@@H]([C@@H](C)O)OC2=O)O[C@@H]1C [fidaxomicin] | – | – | – | 1 µg/mL (≈ 0.945 µM) | 4 µg/mL (≈ 3.78 µM) | 1 µg/mL (≈ 0.945 µM) | 128 µg/mL (≈ 121 µM) | 128 µg/mL (≈ 121 µM) | 16 µg/mL (≈ 15.1 µM) | 64 µg/mL (≈ 60.5 µM) | all of them died | time after drug withdrawal at which deaths occurred / began [10]: 15 days
6 | CC(=O)Oc1ccccc1C(=O)Nc1ncc([N+](=O)[O-])s1 [nitazoxanide, Nitazoxanide] | 0.5 µg/mL (≈ 1.63 µM) | 0.125 µg/mL (≈ 0.407 µM) | 0.125 µg/mL (≈ 0.407 µM) | 1 µg/mL (≈ 3.25 µM) | 32 µg/mL (≈ 104 µM) | 64 µg/mL (≈ 208 µM) | 64 µg/mL (≈ 208 µM) | 64 µg/mL (≈ 208 µM) | 256 µg/mL (≈ 833 µM) | 8 µg/mL (≈ 26 µM) | four hamsters in the nitroxide group survived | –
7 | CN[C@H](CC(C)C)C(=O)N[C@H]1C(=O)N[C@@H](CC(N)=O)C(=O)N[C@H]2C(=O)N[C@H]3C(=O)N[C@H](C(=O)N[C@H](C(=O)O)c4cc(O)cc(O)c4-c4cc3ccc4O)[C@H](O)c3ccc(c(Cl)c3)Oc3cc2cc(c3O[C@@H]2O[C@H](CO)[C@@H](O)[C@H](O)[C@H]2O[C@H]2C[C@](C)(N)[C@H](O)[C@H](C)O2)Oc2ccc(cc2Cl)[C@H]1O [vancomycin] | 1 µg/mL (≈ 0.69 µM) | – | – | – | – | – | – | – | – | – | all hamsters in the vancomycin group died | MIC ([2]; ATCC700057, 48 h): 1 µg/mL (≈ 0.69 µM); MIC ([3]; ATCC630, 48 h): 2 µg/mL (≈ 1.38 µM); MIC (ATCC BAA-835; 48 h): 8 µg/mL (≈ 5.52 µM); MIC ([4]; CGMCC1, 48 h): 4 µg/mL (≈ 2.76 µM); MIC ([5]; ATCC19433, 48 h): 4 µg/mL (≈ 2.76 µM); MIC ([6]; ATCC4356, 48 h): 4 µg/mL (≈ 2.76 µM); MIC ([7]; ATCC11842, 48 h): > 256 µg/mL; MIC ([8]; ATCC7469, 48 h): 256 µg/mL (≈ 177 µM); MIC ([9]; ATCC19435, 48 h): 4 µg/mL (≈ 2.76 µM)

From patent US20240300910A1, “NITROTHIAZOLE DERIVATIVE AND APPLICATION THEREOF” (CHENGDU BIOBEL BIOTECHNOLOGY CO., LTD., priority 2021, published 2024)
